# Laboratory results as given in patent US20220220115A1, “HETEROCYCLIC COMPOUNDS AND USES THEREOF” (Nuvation Bio Inc., priority 2019, published 2022).
# Tests used:
# WEE1 kinase enzyme = target: T1, WEE1 kinase enzyme (Homo sapiens, UniProt P30291); experiment: WEE1 IC50 determination, LanthaScreen Terbium Labeled TR-FRET kinase assay; assay type: biochemical; details: WEE1 enzyme 1 nM, ATP 10 μM
# T1 construct: purchased Invitrogen, Life Technologies PR7373A
# Experimental: IC50 values of compounds against WEE1 kinase enzyme were determined by LanthaScreen™ Terbium Labeled TR-FRET assay. Kinase assays were performed in 1× kinase buffer (#PV6135, Invitrogen, Life Technologies Grand Island, N.Y.) where total reaction volume was 10 μL in low-volume 384-well plates (#4511, Corning). Serially diluted compounds (3-fold) were incubated with WEE1 Enzyme (1 nM) (#PR7373A, Invitrogen, Life Technologies Grand Island, N.Y.) for 10 min, and a mixture of ATP (10 μM) (#A1852, Sigma, St. Louis, Mo.) and fluorescent-PolyGT substrate (200 nM) (#PV3610, Invitrogen, Life Technologies, Grand Island, N.Y.) was added and incubated in dark at room temperature for 1 h. After 1 h, 10 μL stop solution containing Terbium labeled antibody (4 nM) (#PV3529, Invitrogen, Life Technologies Grand Island, N.Y.) and EDTA (#E5134, Sigma, St. Louis, Mo.) (20 mM) in TR-FRET dilution buffer (#PV3574, Invitrogen, Life Technologies, Grand Island, N.Y.) was added. Readings were taken in a Synergy Neo Plate reader (BioTek, Winooski, Vt.) at single excitation of 340 nm and dual emission at 495 nm and 520 nm respectively.
# The % activity of test samples was calculated as (Sample−Min)*100/(Max−Min). [Max: DMSO control, complete reaction with enzyme & DMSO and Min: No enzyme & DMSO]. Percent inhibition (100−% activity) was fitted to the “four-parameter logistic model” in XLfit for determination of IC50 values.
# A427 cell line = experiment: Cytotoxicity assay in A427 cell line (resazurin); assay type: cell-based; details: Homo sapiens, A-427, A427 cells, 72 hr incubation, inhibition of proliferation
# Experimental: A427 (HTB-53; ATCC), a lung epithelial cell line, was seeded in medium (MEM, 41090101; Gibco) at a cell count of 1500 cells per 100 μL per well in a 96 well edge plate (167425; ThermoFisher). Cells were allowed to grow at 37° C. for 24 hr in 5% CO2 environment (culture conditions) in a Nuaire incubator (humidified). Serially diluted test compounds (100 μL) within the desired testing concentration ranges were added to the culture plate and the cells were further incubated in culture conditions for 72 hr. The experiment was terminated at the designated incubation time by replacing the medium with 100 μL of 1 mM of resazurin (R7017; Sigma) prepared in culture medium, and the plates were further incubated in culture conditions for 4-6 hr. Fluorescence was recorded using a multimodal plate reader (Biotek Synergy Neo) at an excitation wavelength of 535 nm and emission wavelength of 590 nm to obtain relative fluorescence units. Data were analysed as follows: the background fluorescence (blank containing only medium) value was subtracted from each reading and normalized with the vehicle control (DMSO treated cells) to obtain percent survival/proliferation. Percent survival was subtracted from 100 to get the percent inhibition of proliferation which was used to calculate IC50 values. Potency of compounds in other cell lines (such as A549, As-Pc-1, Panc 10.05, A172, U-87 MG) may be determined in an analogous manner.
# [1] = tested on: phospho-CDC2 (Tyr15) in A427 cells; experiment: Phospho-CDC2 (Tyr15) sandwich ELISA in A427 cells; assay type: cell-based; details: Homo sapiens, A-427, treatment for a specified time (e.g., 24 hr)
# Experimental: Changes in the levels of phospho-CDCl2 following treatment of cells with test compounds were assessed by enzyme-linked immunosorbent assay (ELISA). A427 cells were plated in 6-well plates and cultured for 24 hr to approximately 80-90% confluency. Medium was replaced, and the cells were treated with the vehicle control or the test compound at several different concentrations. After incubation of treated cells in cell culture conditions for a specified time (e.g., 24 hr), cells were rinsed with ice-cold PBS and lysed in 1× cell lysis buffer containing protease inhibitors and phosphatase inhibitors. The cells were scraped from the plate with a cell scraper after a brief incubation on ice and transferred to a centrifuge tube, and then subjected to three freeze-thaw cycles in liquid nitrogen and a 37° C. water bath for further lysis. The lysates were centrifuged to pellet cell debris (using, for example, a 10 min centrifugation of 2000×g at 4° C.) and the supernatants transferred to fresh tubes on ice. The protein concentrations of the samples were estimated by the Bradford method or equivalent. The ELISA was carried out with the PathScan® Phospho-CDCl2 (Tyr15) Sandwich ELISA Kit (Cat. #7176, Cell Signaling Technology, Danvers, Mass.) according to the manufacturer's instructions.
# T1 sequence (P30291 whole entry): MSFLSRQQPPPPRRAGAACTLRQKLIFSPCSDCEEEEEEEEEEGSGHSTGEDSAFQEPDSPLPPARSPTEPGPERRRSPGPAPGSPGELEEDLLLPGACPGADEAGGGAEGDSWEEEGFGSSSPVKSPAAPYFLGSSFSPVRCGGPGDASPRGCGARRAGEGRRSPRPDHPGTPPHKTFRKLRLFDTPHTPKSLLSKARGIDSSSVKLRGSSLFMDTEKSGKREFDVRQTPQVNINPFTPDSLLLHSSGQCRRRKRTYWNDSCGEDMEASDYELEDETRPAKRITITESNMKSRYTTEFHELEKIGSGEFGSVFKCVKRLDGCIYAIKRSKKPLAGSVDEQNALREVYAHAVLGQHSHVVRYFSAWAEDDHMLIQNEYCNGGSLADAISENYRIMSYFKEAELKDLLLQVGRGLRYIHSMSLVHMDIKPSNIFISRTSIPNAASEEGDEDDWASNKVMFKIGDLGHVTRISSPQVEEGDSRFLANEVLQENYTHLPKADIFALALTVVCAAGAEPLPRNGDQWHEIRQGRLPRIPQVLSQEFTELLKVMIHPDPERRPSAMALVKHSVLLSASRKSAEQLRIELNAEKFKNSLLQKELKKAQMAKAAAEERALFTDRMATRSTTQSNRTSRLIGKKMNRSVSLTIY
SMILES,IC50 (WEE1 kinase enzyme) [nM],IC50 [1] [nM],IC50 (A427 cell line) [nM]
"CC(C)(C)c1csc(-n2c3nc(Nc4ccc5c(c4)CCNC5)ncc3c(=O)n2CC(F)(F)F)n1 [Compound No. 1.11, 1-(4-(tert-butyl)thiazol-2-yl)-6-((1,2,3,4-tetrahydroisoquinolin-6-yl)amino)-2-(2,2,2-trifluoroethyl)-1,2-dihydro-3H-pyrazolo[3,4-d]pyrimidin-3-one]",19,,1580
"CC(C)(C)c1csc(-n2c3nc(Nc4ccc5c(c4)CNCC5)ncc3c(=O)n2CC(F)(F)F)n1 [Compound No. 1.12, 1-(4-(tert-butyl)thiazol-2-yl)-6-((1,2,3,4-tetrahydroisoquinolin-7-yl)amino)-2-(2,2,2-trifluoroethyl)-1,2-dihydro-3H-pyrazolo[3,4-d]pyrimidin-3-one]",3,,2370
"CC(C)n1c(=O)c2cnc(Nc3ccc4c(c3)CCNC4)nc2n1-c1nc(C(C)(C)C)cs1 [Compound No. 1.1, 1-(4-(tert-butyl)thiazol-2-yl)-2-isopropyl-6-((1,2,3,4-tetrahydroisoquinolin-6-yl)amino)-1,2-dihydro-3H-pyrazolo[3,4-d]pyrimidin-3-one]",4,,530
"CC(C)(C)c1csc(-n2c3nc(Nc4ccc5c(c4)CNCC5)ncc3c(=O)n2C2CC2)n1 [Compound No. 1.6, 1-(4-(tert-butyl)thiazol-2-yl)-2-cyclopropyl-6-((1,2,3,4-tetrahydroisoquinolin-7-yl)amino)-1,2-dihydro-3H-pyrazolo[3,4-d]pyrimidin-3-one]",6,1120,1140
"CCn1c(=O)c2cnc(Nc3ccc4c(c3)CNCC4)nc2n1-c1nc(C(C)(C)C)cs1 [Compound No. 1.8, 1-(4-(tert-butyl)thiazol-2-yl)-2-ethyl-6-((1,2,3,4-tetrahydroisoquinolin-7-yl)amino)-1,2-dihydro-3H-pyrazolo[3,4-d]pyrimidin-3-one]",4,,993
"CC(C)(C#N)c1cccc(-n2c3nc(Nc4ccc5c(c4)CNCC5)ncc3c(=O)n2CC(F)(F)F)n1 [Compound No. 1.32, 2-methyl-2-(6-(3-oxo-6-(1,2,3,4-tetrahydroisoquinolin-7-ylamino)-2-(2,2,2-trifluoroethyl)-2,3-dihydro-1H-pyrazolo[3,4-d]pyrimidin-1-yl)pyridin-2-yl)propanenitrile]",10,,223
"CC(C)(C)c1csc(-n2c3nc(Nc4ccc5c(c4)CCNC5)ncc3c(=O)n2C2CC2)n1 [Compound No. 1.5, 1-(4-(tert-butyl)thiazol-2-yl)-2-cyclopropyl-6-((1,2,3,4-tetrahydroisoquinolin-6-yl)amino)-1,2-dihydro-3H-pyrazolo[3,4-d]pyrimidin-3-one]",18,,1270

# Continued, in another order:
IC50 (WEE1 kinase enzyme) [nM],IC50 [1] [nM],SMILES,IC50 (A427 cell line) [nM]
57,,"CC(C)n1c(=O)c2cnc(Nc3ccc4c(c3)CNCC4)nc2n1-c1csc(N2CCOCC2)n1 [Compound No. 1.7, 2-isopropyl-1-(2-morpholinothiazol-4-yl)-6-((1,2,3,4-tetrahydroisoquinolin-7-yl)amino)-1,2-dihydro-3H-pyrazolo[3,4-d]pyrimidin-3-one]",> 30000
1,,"O=c1c2cnc(Nc3ccc4c(c3)CCNC4)nc2n(-c2cccc(C3(CO)CC3)n2)n1CC(F)(F)F [1.225, 1-(6-(1-(hydroxymethyl)cyclopropyl)pyridin-2-yl)-6-(1,2,3,4-tetrahydroisoquinolin-6-ylamino)-2-(2,2,2-trifluoroethyl)-1H-pyrazolo[3,4-d]pyrimidin-3(2H)-one]",375
4,57,"CC(C)n1c(=O)c2cnc(Nc3ccc4c(c3)CNCC4)nc2n1-c1cccc(C2(CO)CC2)n1 [1.224, 1-(6-(1-(hydroxymethyl)cyclopropyl)pyridin-2-yl)-2-isopropyl-6-((1,2,3,4-tetrahydroisoquinolin-7-yl)amino)-1,2-dihydro-3H-pyrazolo[3,4-d]pyrimidin-3-one]",243
8,,"CC(C)n1c(=O)c2cnc(Nc3ccc4c(c3)CCNC4)nc2n1-c1csc(N2CCOCC2)n1 [Compound No. 1.3, 2-isopropyl-1-(2-morpholinothiazol-4-yl)-6-((1,2,3,4-tetrahydroisoquinolin-6-yl)amino)-1,2-dihydro-3H-pyrazolo[3,4-d]pyrimidin-3-one]",> 30000
< 0.2,,"CC(C)n1c(=O)c2cnc(Nc3ccc4c(c3)CNCC4)nc2n1-c1nc(C(C)(C)C)cs1 [Compound No. 1.2, 1-(4-(tert-butyl)thiazol-2-yl)-2-isopropyl-6-((1,2,3,4-tetrahydroisoquinolin-7-yl)amino)-1,2-dihydro-3H-pyrazolo[3,4-d]pyrimidin-3-one]",585
3,,"CCn1c(=O)c2cnc(Nc3ccc4c(c3)CCNC4)nc2n1-c1cccc(C(C)(C)C#N)n1 [Compound No. 1.4, 2-(6-(2-ethyl-3-oxo-6-((1,2,3,4-tetrahydroisoquinolin-6-yl)amino)-2,3-dihydro-1H-pyrazolo[3,4-d]pyrimidin-1-yl)pyridin-2-yl)-2-methylpropanenitrile]",320
9,,"CC(C)(CF)c1cccc(-n2c3nc(Nc4ccc5c(c4)CCNC5(C)C)ncc3c(=O)n2C2CC2)n1 [Compound No. 1.79, 2-cyclopropyl-6-((1,1-dimethyl-1,2,3,4-tetrahydroisoquinolin-6-yl)amino)-1-(6-(1-fluoro-2-methylpropan-2-yl)pyridin-2-yl)-1,2-dihydro-3H-pyrazolo[3,4-d]pyrimidin-3-one]",970
5,,"CC(C)(C#N)c1cccc(-n2c3nc(Nc4ccc5c(c4)CCNC5(C)C)ncc3c(=O)n2CC(F)(F)F)n1 [Compound No. 1.33, 2-(6-(6-(1,1-dimethyl-1,2,3,4-tetrahydroisoquinolin-6-ylamino)-3-oxo-2-(2,2,2-trifluoroethyl)-2,3-dihydro-1H-pyrazolo[3,4-d]pyrimidin-1-yl)pyridin-2-yl)-2-methylpropanenitrile]",513
7,,"CCn1c(=O)c2cnc(Nc3ccc4c(c3)CCNC4)nc2n1-c1nc(C(C)(C)C)cs1 [Compound No. 1.10, 1-(4-(tert-butyl)thiazol-2-yl)-2-ethyl-6-((1,2,3,4-tetrahydroisoquinolin-6-yl)amino)-1,2-dihydro-3H-pyrazolo[3,4-d]pyrimidin-3-one]",1490
7,,"CCn1c(=O)c2cnc(Nc3ccc4c(c3)CNCC4)nc2n1-c1cccc(C(C)(C)C#N)n1 [Compound No. 1.223, 2-(6-(2-ethyl-3-oxo-6-(1,2,3,4-tetrahydroisoquinolin-7-ylamino)-2,3-dihydro-1H-pyrazolo[3,4-d]pyrimidin-1-yl)pyridin-2-yl)-2-methylpropanenitrile]",102
